{"source": "patent US20250177425A1", "about": "“SAIKOSAPONIN C AS COMPOSITION FOR TREATING OR PREVENTING AGE-RELATED VASCULAR DISEASES INCLUDING ARTERIOSCLEROSIS” (AGINGTARGET, INC., priority 2022, published 2025)", "key": {"CASMC": {"test_system": "CASMC", "assay": "Wound healing and transwell migration assay, PDGF-BB-induced", "assay_type": "cell-based, human", "conditions": "5 μM and 20 μM pretreatment 2 hours, PDGF-BB 20 ng/ml 24 hours", "protocol": "(§1) Specifically, two types of vascular smooth muscle cells, namely, AoSMC (human aortic smooth muscle cells) and CASMC (human coronary artery smooth muscle cells), were pretreated with Saikosaponin C at concentrations of 5 μM and 20 μM for 2 hours, and then treated with PDGF-BB (20 ng/ml), a platelet-derived growth factor (PDGF), for 24 hours. Then, the proliferation and migration of vascular smooth muscle cells were observed. A wound healing assay was performed to observe the proliferation and migration of vascular smooth muscle cells, and a transwell migration assay was performed to observe the migration ability of vascular smooth muscle cells.\n(§2) FIGS. 10A and 10B show the results of evaluating the proliferation and migration of vascular smooth muscle cells (AoSMC, CASMC) through a scratch wound healing assay. FIGS. 10C and 10D show the results of analyzing the cell migration ability of the same cells using a Transwell migration chamber with a pore size of 8.0 μm."}, "AoSMC": {"test_system": "AoSMC", "assay": "Wound healing and transwell migration assay, PDGF-BB-induced", "assay_type": "cell-based, human", "conditions": "5 μM and 20 μM pretreatment 2 hours, PDGF-BB 20 ng/ml 24 hours", "protocol": "as §1, §2"}, "[1]": {"test_system": "eNOS / nitric oxide in HPAEC", "assay": "NOS-NO signaling: nitric oxide level, eNOS activity, expression, phosphorylation", "assay_type": "cell-based, human", "conditions": "5 μM and 20 μM pretreatment 2 hours, 33 mM high glucose 36 hours, dose-dependent", "protocol": "(§3) Similar to Experimental Example 1, a high-fat diet evaluation system at the cellular level was established.\n(§4) Specifically, two types of vascular endothelial cells, namely, HUVEC and HPAEC cells, were pretreated with Saikosaponin C at concentrations of 5 μM and 20 μM for 2 hours, and then treated with high glucose at a concentration of 33 mM for 36 hours. Then, the nitric oxide (NO) concentration, endothelial nitric oxide synthase (eNOS) activity, protein expression, and phosphorylation level were analyzed.\n(§5) Nitric oxide production was measured using a Nitric Oxide Assay Kit (FIG. 6A and FIG. 6B). Specifically, nitrate (NO3^−) and nitrite (NO2^−) levels were measured using nitrate reductase and Griess reagent. Nitric oxide synthase activity was measured using a NOS Activity Assay Kit (FIG. 6C and FIG. 6D) and the expression and phosphorylation (Ser114) of NOS were measured by Western blotting (FIG. 6E and FIG. 6F)."}, "[2]": {"test_system": "eNOS / nitric oxide in HUVEC", "assay": "NOS-NO signaling: nitric oxide level, eNOS activity, expression, phosphorylation", "assay_type": "cell-based, human", "conditions": "5 μM and 20 μM pretreatment 2 hours, 33 mM high glucose 36 hours, dose-dependent", "protocol": "as §3, §4, §5"}, "[3]": {"test_system": "p21, p27, and p16 in HPAEC", "assay": "Western blotting of G1 phase growth arrest-inducing proteins", "assay_type": "cell-based, human", "conditions": "5 μM and 20 μM pretreatment 2 hours, 33 mM high glucose 36 hours, dose-dependent", "protocol": "as §3\n(§6) Specifically, two types of vascular endothelial cells, namely, HUVEC and HPAEC cells, were pretreated with Saikosaponin C at concentrations of 5 μM and 20 μM for 2 hours, then treated with high glucose (33 mM) for 48 hours, and then immobilized with cold 70% ethanol. The DNA of the immobilized vascular endothelial cells was stained with PI (propidium iodide, 50 μg/ml) solution and the cell cycle was analyzed using a flow cytometer. In addition, the expression of cell cycle regulatory proteins such as p21, p27, and p16 was analyzed after treatment with high glucose (33 mM) for 36 hours.\n(§7) Since cellular senescence is closely related to the arrest in the G1 phase of the cell cycle, the cell cycle was evaluated using flow cytometry (FIG. 4A and FIG. 4B). In addition, the expression of p21, p27, and p16 proteins, which are G1 phase growth arrest-inducing proteins, was measured through Western blotting (FIG. 4C, FIG. 4D)."}, "[4]": {"test_system": "p21, p27, and p16 in HUVEC", "assay": "Western blotting of G1 phase growth arrest-inducing proteins", "assay_type": "cell-based, human", "conditions": "5 μM and 20 μM pretreatment 2 hours, 33 mM high glucose 36 hours, dose-dependent", "protocol": "as §3, §6, §7"}, "HUVEC [5]": {"test_system": "HUVEC", "assay": "Cell cycle analysis by flow cytometry (PI), high glucose-induced G1 phase arrest", "assay_type": "cell-based, human", "conditions": "5 μM and 20 μM pretreatment 2 hours, 33 mM high glucose 48 hours, dose-dependent", "protocol": "as §3, §6, §7"}, "HPAEC [6]": {"test_system": "HPAEC", "assay": "Cell cycle analysis by flow cytometry (PI), high glucose-induced G1 phase arrest", "assay_type": "cell-based, human", "conditions": "5 μM and 20 μM pretreatment 2 hours, 33 mM high glucose 48 hours, dose-dependent", "protocol": "as §3, §6, §7"}, "HUVEC [7]": {"test_system": "HUVEC", "assay": "Trypan blue staining, viable cell count under high glucose", "assay_type": "cell-based, human", "conditions": "5 μM and 20 μM pretreatment 2 hours, 33 mM high glucose 1 week, dose-dependent", "protocol": "(§8) Similar to Experimental Example 1, a high-fat diet evaluation system at the cell level was established.\n(§9) Specifically, two types of vascular endothelial cells, namely, HUVEC and HPAEC cells, were pretreated with Saikosaponin C at concentrations of 5 μM and 20 μM for 2 hours, and then treated with high glucose at a concentration of 33 mM for 1 week. The number of viable cells was then analyzed by Trypan blue staining. The number of viable cells was based on the number of cells in the control group (none) set to “100”."}, "HPAEC [8]": {"test_system": "HPAEC", "assay": "Trypan blue staining, viable cell count under high glucose", "assay_type": "cell-based, human", "conditions": "5 μM and 20 μM pretreatment 2 hours, 33 mM high glucose 1 week, dose-dependent", "protocol": "as §8, §9"}, "NLRP3 inflammasome": {"biological_target": "NLRP3 inflammasome (Homo sapiens, UniProt Q96P20)", "sequence (Q96P20 whole entry)": "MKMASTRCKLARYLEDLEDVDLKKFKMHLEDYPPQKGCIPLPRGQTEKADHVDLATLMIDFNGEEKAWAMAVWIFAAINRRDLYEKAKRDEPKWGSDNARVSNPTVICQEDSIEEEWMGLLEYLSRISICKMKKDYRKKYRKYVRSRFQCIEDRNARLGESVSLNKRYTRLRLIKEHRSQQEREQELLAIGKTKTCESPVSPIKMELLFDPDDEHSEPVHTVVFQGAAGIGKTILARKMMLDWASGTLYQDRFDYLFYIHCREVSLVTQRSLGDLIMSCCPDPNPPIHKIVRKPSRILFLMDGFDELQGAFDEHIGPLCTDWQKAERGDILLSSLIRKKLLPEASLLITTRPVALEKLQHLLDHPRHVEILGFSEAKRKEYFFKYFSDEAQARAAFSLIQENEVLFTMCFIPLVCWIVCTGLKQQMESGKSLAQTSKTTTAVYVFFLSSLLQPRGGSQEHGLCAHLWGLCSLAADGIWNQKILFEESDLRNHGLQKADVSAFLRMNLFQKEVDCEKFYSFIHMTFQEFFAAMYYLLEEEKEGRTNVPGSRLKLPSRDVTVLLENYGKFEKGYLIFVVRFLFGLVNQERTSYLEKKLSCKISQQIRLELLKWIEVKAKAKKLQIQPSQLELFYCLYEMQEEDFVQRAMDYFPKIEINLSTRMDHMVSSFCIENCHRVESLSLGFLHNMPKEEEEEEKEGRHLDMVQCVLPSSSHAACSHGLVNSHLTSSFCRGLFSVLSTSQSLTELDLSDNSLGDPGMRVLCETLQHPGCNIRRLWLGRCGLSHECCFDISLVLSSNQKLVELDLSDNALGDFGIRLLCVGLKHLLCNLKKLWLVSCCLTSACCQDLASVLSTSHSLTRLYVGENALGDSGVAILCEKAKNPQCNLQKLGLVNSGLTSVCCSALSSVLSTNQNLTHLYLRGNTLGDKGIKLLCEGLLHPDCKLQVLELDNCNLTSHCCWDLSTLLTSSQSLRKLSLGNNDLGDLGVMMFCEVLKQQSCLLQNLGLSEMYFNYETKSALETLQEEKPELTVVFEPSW", "assay": "NLRP3 inflammasome activity: IL-1β secretion (Solid Phase Sandwich ELISA)", "conditions": "PMA-differentiated THP-1 macrophages; 20 μM pretreatment 2 hours, MSU 200 μg/ml 6 hours"}, "[9]": {"test_system": "PAI-1, ICAM-1, and VCAM-1 in HUVEC", "assay": "Western blotting of vascular senescence marker proteins", "assay_type": "cell-based, human", "conditions": "5 μM and 20 μM pretreatment 2 hours, 33 mM high glucose 48 hours, dose-dependent", "protocol": "as §3\n(§10) Specifically, two types of vascular endothelial cells, namely, HUVEC and HPAEC cells, were pretreated with Saikosaponin C at concentrations of 5 μM and 20 μM for 2 hours, and then treated with high glucose at a concentration of 33 mM for 72 hours (for SA-β-gal staining) or 48 hours (for vascular senescence marker protein analysis). Then, the degree of cellular senescence was measured through SA-β-gal staining and measured as the ratio of the total cells to cells stained in blue (SA-β-gal positive). In addition, the expression of vascular senescence marker proteins such as PAI-1, ICAM-1, and VCAM-1 was analyzed.\n(§11) Specifically, the senescence of vascular endothelial cells was evaluated by SA-β-gal staining to measure the activity of β-galactosidase, which is an enzyme present in the lysosome, an organelle within the cell (FIG. 3C and FIG. 3D) and this was represented as a graph (FIG. 3A and FIG. 3B). In addition, FIGS. 3E and 3F show the results of Western blotting to determine the expression of vascular senescence marker proteins such as PAI-1, ICAM-1, and VCAM-1 in two types of vascular endothelial cells (HUVEC, HPAEC)."}, "[10]": {"test_system": "PAI-1, ICAM-1, and VCAM-1 in HPAEC", "assay": "Western blotting of vascular senescence marker proteins", "assay_type": "cell-based, human", "conditions": "5 μM and 20 μM pretreatment 2 hours, 33 mM high glucose 48 hours, dose-dependent", "protocol": "as §3, §10, §11"}}}
{"smiles": "CC1O[C@@H](O[C@@H]2C(CO[C@@H]3OC(CO)[C@@H](O)C(O)C3O)O[C@@H](O[C@H]3CC[C@]4(C)[C@H]5C=C[C@]67OC[C@@]8(CCC(C)(C)C[C@H]86)[C@@H](O)C[C@@]7(C)[C@]5(C)CC[C@H]4C3(C)C)C(O)C2O)C(O)C(O)[C@H]1O", "note": "(stereo partly shown) [Saikosaponin C]", "values": [{"measurement": "PDGF-BB-increased proliferation and migration of vascular smooth muscle cells", "setting": "CASMC", "result": "not inhibited"}, {"measurement": "PDGF-BB-increased proliferation and migration of vascular smooth muscle cells", "setting": "AoSMC", "result": "not inhibited"}, {"measurement": "high glucose-induced decrease in NOS-NO signaling (NO level, eNOS enzymatic activity, protein expression, phosphorylation)", "setting": "[1]", "result": "significantly alleviated"}, {"measurement": "high glucose-induced decrease in NOS-NO signaling (NO level, eNOS enzymatic activity, protein expression, phosphorylation)", "setting": "[2]", "result": "significantly alleviated"}, {"measurement": "high glucose-induced increase in the expression of p21, p27, and p16 proteins", "setting": "[3]", "result": "significantly abolished"}, {"measurement": "high glucose-induced increase in the expression of p21, p27, and p16 proteins", "setting": "[4]", "result": "significantly abolished"}, {"measurement": "high glucose-induced G1 phase arrest", "setting": "HUVEC [5]", "result": "significantly abolished"}, {"measurement": "high glucose-induced G1 phase arrest", "setting": "HPAEC [6]", "result": "significantly abolished"}, {"measurement": "high glucose-induced cell growth inhibition (number of viable cells, Trypan blue)", "setting": "HUVEC [7]", "result": "significantly alleviated"}, {"measurement": "high glucose-induced cell growth inhibition (number of viable cells, Trypan blue)", "setting": "HPAEC [8]", "result": "significantly alleviated"}, {"measurement": "IL-1β secretion", "setting": "NLRP3 inflammasome", "result": "inhibited"}, {"measurement": "expression of vascular senescence marker proteins PAI-1, ICAM-1, and VCAM-1", "setting": "[9]", "result": "reduced"}, {"measurement": "expression of vascular senescence marker proteins PAI-1, ICAM-1, and VCAM-1", "setting": "[10]", "result": "reduced"}]}
